# Source: ChEMBL document CHEMBL5338711, “Designing and development of phthalimides as potent anti-tubulin hybrid molecules against malaria” (Eur J Med Chem, 2022)
# The source made the active and inactive calls. The calls are words filed in the database; no cut-off is given here.
# Tests used:
# Plasmodium falciparum [1] = test: Antimalarial activity against […] infected in human RBC assessed as inhibition of plasmodial growth at 1 uM by SYBR green dye based spectrofluorometric analysis relative to control; type: functional; settings: 3D7, Erythrocyte
# Plasmodium falciparum [2] = test: Antimalarial activity against […] infected in human RBC assessed as inhibition of plasmodial growth at 10 uM by SYBR green dye based spectrofluorometric analysis relative to control; type: functional; settings: 3D7, Erythrocyte
# Plasmodium falciparum [3] = test: Antiplasmodial activity against […] incubated for 90 hrs by SYBR green I dye based analysis; type: functional, organism-based; settings: 3D7, 90 h
# [4] = Cytotoxicity against human U-937 cells assessed as reduction in cell viability incubated for 24 hrs by MTT assay; type: toxicity, cell-based
# [5] = Cytotoxicity against human HepG2 cells; type: toxicity, cell-based
# Plasmodium falciparum [6] = test: Antimalarial activity against chloroquine-sensitive synchronized late stage trophozoite Plasmodium falciparum 3D7 infected in human RBC assessed as inhibition of plasmodial growth by giemsa staining based analysis; type: functional, organism-based; settings: 3D7, Erythrocyte
# Plasmodium falciparum [7] = test: Antimalarial activity against chloroquine-resistant synchronized late stage trophozoite Plasmodium falciparum RKL-9 infected in human RBC assessed as inhibition of plasmodial growth by giemsa staining based analysis; type: functional, organism-based; settings: RKL-9, Erythrocyte
# Plasmodium falciparum [8] = test: Antimalarial activity against chloroquine-resistant Plasmodium falciparum RKL-9 infected in human RBC assessed as reduction of plasmodial growth by SYBR green dye based spectrofluorometric analysis; type: functional, organism-based
# Erythrocyte = test: Hemolytic activity in human RBC assessed as hemolysis upto 5 uM incubated for 2 hrs; type: toxicity, cell-based
# [9] = Therapeutic index, ratio of CC50 for human HepG2 cells to IC50 for chloroquine-sensitive synchronized late stage trophozoite Plasmodium falciparum 3D7 infected in human RBC; type: toxicity; settings: read-out: TI
# [10] = Cytotoxicity against […] cell upto 500 uM; type: toxicity, cell-based; settings: human
# [11] = Therapeutic index, ratio of cytotoxicity against […] cells to IC50 for chloroquine-sensitive synchronized late stage trophozoite Plasmodium falciparum 3D7 infected in human RBC; type: toxicity, cell-based; settings: read-out: TI
# Plasmodium falciparum [12] = test: (§1) Antiplasmodial activity against synchronized ring stage Plasmodium falciparum 3D7 infected in human RBC assessed as failure of egress by measuring accumulation at late schizont stage at IC50 concentration measured after 60 hrs by giemsa staining based light microscopic analysis; type: functional, organism-based
# Plasmodium falciparum [13] = test: Induction of mitochondrial membrane depolarization in trophozoite stage Plasmodium falciparum 3D7 infected in human RBC assessed as increase in green fluorescence at IC50 concentration incubated for 3 hrs by JC-1 dye based fluorescence microscopic analysis; type: functional, organism-based
# Plasmodium falciparum [14] = test: Induction of mitochondrial membrane depolarization in trophozoite stage Plasmodium falciparum 3D7 infected in human RBC assessed as decrease in red to green fluorescence ratio at IC50 concentration incubated for 3 hrs by JC-1 dye based fluorescence microscopic analysis; type: functional, organism-based
# Plasmodium falciparum [15] = test: Induction of mitochondrial membrane depolarization in trophozoite stage Plasmodium falciparum 3D7 infected in human RBC assessed as red to green fluorescence ratio at IC50 concentration incubated for 3 hrs by JC-1 dye based spectrofluorometric analysis (reference value: 6.96+/-0.94); type: functional
# Plasmodium falciparum [16] = test: Binding affinity to recombinant N-terminal 6His tagged Plasmodium falciparum alpha-1 tubulin expressed in Escherichia coli BL21 assessed as dissociation constant at 0.78 to 75 uM by SPR analysis; settings: dose 0.78-75 µM
# Plasmodium falciparum [17] = test: Binding affinity to recombinant N-terminal 6His tagged Plasmodium falciparum beta-tubulin expressed in Escherichia coli BL21 at 0.78 to 75 uM by SPR analysis; settings: dose 0.78-75 µM
# Plasmodium falciparum [18] = test: Binding affinity to recombinant N-terminal 6His tagged Plasmodium falciparum alpha-1 tubulin expressed in Escherichia coli BL21 assessed as thermo-stabilization incubated at 4 to 80 degreeC for 3 mins followed by 5 mins incubation at room temperature by thermal shift assay; settings: time 8.0 min
# Plasmodium falciparum [19] = test: Antiplasmodial activity against synchronized ring stage Plasmodium falciparum 3D7 infected in human RBC assessed as defect in invasion stage by measuring merozoites sticking on the red blood cell surface at IC50 concentration measured after 60 hrs by giemsa staining based light microscopic analysis; type: functional, organism-based
# Plasmodium falciparum [20] = test: Synergistic antimalarial activity against synchronized ring stage Plasmodium falciparum 3D7 infected in human RBC assessed as mean fractional inhibitory concentration at 2:3 ratio of ART to compound incubated for 72 hrs by giemsa staining based flow cytometric analysis; type: functional
# Plasmodium falciparum [21] = test: Synergistic antimalarial activity against synchronized ring stage Plasmodium falciparum 3D7 infected in human RBC assessed as mean fractional inhibitory concentration at 1:4 ratio of ART to compound incubated for 72 hrs by giemsa staining based flow cytometric analysis; type: functional
# [22] = Binding affinity to recombinant N-terminal 6His tagged Plasmodium falciparum alpha-1 tubulin expressed in Escherichia coli BL21 assessed as dissociation constant by SPR analysis
# Plasmodium berghei [23] = test: Antimalarial activity against Plasmodium berghei ANKA in BALB/c mouse injected with parasite infected erythrocytes assessed as decrease in parasite load at 30 mg/kg, ip administered daily for 7 days relative to control; type: functional; parameters: scale not given: the % may be the effect or the level left; settings: time 7 day
# Plasmodium berghei [24] = test: Antimalarial activity against Plasmodium berghei ANKA in BALB/c mouse injected with parasite infected erythrocytes assessed as reduction in parasitemia at 30 mg/kg, ip administered daily for 7 days and measured after 15 days; type: functional, organism-based; settings: time 15.0 day
# Plasmodium berghei [25] = test: Antimalarial activity against Plasmodium berghei ANKA in BALB/c mouse injected with parasite infected erythrocytes assessed as […] mean survival time at 30 mg/kg, ip administered daily for 7 days and measured after 15 days; type: functional; settings: time 15 day
# Plasmodium falciparum [26] = test: as §1, with “reduction in transformation into pyknotic trophozoites” for “failure of egress”, “delay in ring maturation” for “accumulation at late schizont stage”; type: functional, organism-based
# Plasmodium falciparum [27] = test: Synergistic antimalarial activity against synchronized ring stage Plasmodium falciparum 3D7 infected in human RBC assessed as mean fractional inhibitory concentration at 1:1 ratio of ART to compound incubated for 72 hrs by giemsa staining based flow cytometric analysis; type: functional
# Plasmodium falciparum [28] = test: Antiplasmodial activity against Plasmodium falciparum 3D7; type: functional, organism-based
# [29] = Cytotoxicity against human U-937 cells; type: toxicity, cell-based
smiles,measurement,setting,value
Cc1ccc(-n2cc(Cn3c([C@@H](CC(C)C)N4C(=O)c5ccc(C)cc5C4=O)nc4ccccc43)nn2)cc1,inhibition at 1 µM,Plasmodium falciparum [1],-8.63%
same,inhibition at 10 µM,Plasmodium falciparum [2],68.9%
CC(C)C(c1nc2ccccc2n1Cc1cn(-c2ccc(F)cc2)nn1)N1C(=O)c2ccccc2C1=O (stereo unspecified),IC50,Plasmodium falciparum [3],3.5 µM
same,CC50 at 24 h,[4],0.78 µM
CC(C)CC(c1nc2ccccc2n1Cc1cn(-c2ccccc2)nn1)N1C(=O)c2ccccc2C1=O (stereo unspecified),IC50,Plasmodium falciparum [3],0.9 µM
same,CC50 at 24 h,[4],0.91 µM
CCC(C)[C@H](c1nc2ccccc2n1Cc1cn(-c2ccc(F)cc2)nn1)N1C(=O)c2ccc(C)cc2C1=O (stereo partly specified),IC50,[5],> 100 µM
same,inhibition at 1 µM,Plasmodium falciparum [1],20%
same,inhibition at 10 µM,Plasmodium falciparum [2],64%
same,IC50,Plasmodium falciparum [6],2.2 µM
same,IC50,Plasmodium falciparum [7],3.43 µM
same,Activity,Plasmodium falciparum [8],Dose dependent effect
same,Activity,Erythrocyte,Non-Toxic
same,selectivity ratio,[9],46
same,Activity,[10],Non-Toxic
same,selectivity ratio,[11],> 800
same,Activity,Plasmodium falciparum [12],Active
same,Activity,Plasmodium falciparum [13],Active
same,Activity,Plasmodium falciparum [14],Active
same,Activity,Plasmodium falciparum [15],5.56
same,Activity,Plasmodium falciparum [16],inactive
same,Activity,Plasmodium falciparum [17],inactive
same,Activity,Plasmodium falciparum [18],Active
CCC(C)[C@H](c1nc2ccccc2n1Cc1cn(-c2ccc(C(F)(F)F)cc2)nn1)N1C(=O)c2ccccc2C1=O (stereo partly specified),IC50,[5],> 100 µM
same,inhibition at 1 µM,Plasmodium falciparum [1],45%
same,inhibition at 10 µM,Plasmodium falciparum [2],68%
same,IC50,Plasmodium falciparum [6],0.64 µM
same,IC50,Plasmodium falciparum [7],1.62 µM
same,Activity,Plasmodium falciparum [8],Dose dependent effect
same,Activity,Erythrocyte,Non-Toxic
same,selectivity ratio,[9],156
same,Activity,[10],Non-Toxic
same,Activity,Plasmodium falciparum [19],Active
same,Activity,Plasmodium falciparum [13],Active
same,Activity,Plasmodium falciparum [14],Active
same,Activity,Plasmodium falciparum [15],4.61
same,FIC,Plasmodium falciparum [20],0.86
same,FIC,Plasmodium falciparum [21],0.67
same,Kd,[22],26.4 µM
same,Activity,Plasmodium falciparum [17],inactive
same,Activity,Plasmodium falciparum [18],Active
same,Activity,Plasmodium berghei [23],2.1%
same,Activity,Plasmodium berghei [24],Active
same,MST,Plasmodium berghei [25],11.42 days
CC(C)[C@H](c1nc2ccccc2n1Cc1cn(-c2ccc(C(F)(F)F)cc2)nn1)N1C(=O)c2ccccc2C1=O,IC50,[5],> 100 µM
same,inhibition at 1 µM,Plasmodium falciparum [1],22%
same,inhibition at 10 µM,Plasmodium falciparum [2],75%
same,IC50,Plasmodium falciparum [6],2.3 µM
same,IC50,Plasmodium falciparum [7],3.92 µM
same,Activity,Plasmodium falciparum [8],Dose dependent effect
same,Activity,Erythrocyte,Non-Toxic
same,selectivity ratio,[9],43
same,Activity,[10],Non-Toxic
same,Activity,Plasmodium falciparum [26],Active
same,Activity,Plasmodium falciparum [13],Active
same,Activity,Plasmodium falciparum [14],Active
same,Activity,Plasmodium falciparum [15],5.06
same,FIC,Plasmodium falciparum [27],0.93
same,Activity,Plasmodium berghei [23],3.9%
same,Activity,Plasmodium berghei [24],Active
same,MST,Plasmodium berghei [25],10.47 days
CCC(C)[C@H](c1nc2ccccc2n1Cc1cn(-c2ccc(F)cc2)nn1)N1C(=O)c2ccccc2C1=O (stereo partly specified),IC50,Plasmodium falciparum [28],0.9 µM
same,CC50,[29],28.8 µM
Cc1ccc2c(c1)C(=O)N([C@H](CC(C)C)c1nc3ccccc3n1Cc1c[nH]nn1)C2=O,inhibition at 1 µM,Plasmodium falciparum [1],-64%
same,inhibition at 10 µM,Plasmodium falciparum [2],71%
Cc1ccc2c(c1)C(=O)N([C@H](CC(C)C)c1nc3ccccc3n1Cc1cn(-c3ccc(C(F)(F)F)cc3)nn1)C2=O,inhibition at 1 µM,Plasmodium falciparum [1],37%
same,inhibition at 10 µM,Plasmodium falciparum [2],75%
CC(C)[C@H](c1nc2ccccc2n1Cc1cn(-c2c(F)cccc2F)nn1)N1C(=O)c2ccccc2C1=O,inhibition at 1 µM,Plasmodium falciparum [1],-26%
same,inhibition at 10 µM,Plasmodium falciparum [2],91%
CCC(C)[C@H](c1nc2ccccc2n1Cc1cn(-c2ccccc2F)nn1)N1C(=O)c2ccccc2C1=O (stereo partly specified),inhibition at 1 µM,Plasmodium falciparum [1],8%
same,inhibition at 10 µM,Plasmodium falciparum [2],87%
